Results on ten molecules are retold here after US20180214395A1 (priority 2017, published 2018).

Broadly, the IC50 is the concentration that inhibits the measured activity by half. A higher IC50 goes with weaker potency in that assay. A word on the inhibition: it is how much of the control response was suppressed. Lower therefore signals little suppression. By Ki is commonly meant the dissociation constant of the complex between target and ligand, obtained from inhibition or displacement. Read a high Ki as lower affinity.

Molecules are shown by their SMILES. Several values for one entry are separate records, joined by “and”; a condition that tells them apart may be missing. Equal entries are not always repeated. Structures can show the parent of a compound that is named as a salt.

Experiment [1] in a line: Novelty-suppressed feeding test (NSFT). The format is in vivo. Particulars: rat, 72 hr after single dose.
Another experiment in a line: Forced swim test. The format is in vivo, rat.
A short description of experiment [2]: Locomotor activity assessment (distance traveled, rearing). The format is in vivo, rat.
Experiment [3] can be described thus: Female urine sniffing test (FUST). Format: in vivo. Particulars: rat; 24 hr after single dose; ketamine 10 mg/kg ip, d-methadone 20 mg/kg sc.
For the next experiment, the system named is opioid receptors. Particulars: cited from earlier work.
The target in experiment [4] is T1, norepinephrine transporter (NET) (Rattus norvegicus, UniProt Q63380).
T1 construct: tissue Eurofins Cerep; host or cells: rat hypothalamus synaptosomes (own knowledge of the vendor's assay)
T1 sequence (Q63380 1-617): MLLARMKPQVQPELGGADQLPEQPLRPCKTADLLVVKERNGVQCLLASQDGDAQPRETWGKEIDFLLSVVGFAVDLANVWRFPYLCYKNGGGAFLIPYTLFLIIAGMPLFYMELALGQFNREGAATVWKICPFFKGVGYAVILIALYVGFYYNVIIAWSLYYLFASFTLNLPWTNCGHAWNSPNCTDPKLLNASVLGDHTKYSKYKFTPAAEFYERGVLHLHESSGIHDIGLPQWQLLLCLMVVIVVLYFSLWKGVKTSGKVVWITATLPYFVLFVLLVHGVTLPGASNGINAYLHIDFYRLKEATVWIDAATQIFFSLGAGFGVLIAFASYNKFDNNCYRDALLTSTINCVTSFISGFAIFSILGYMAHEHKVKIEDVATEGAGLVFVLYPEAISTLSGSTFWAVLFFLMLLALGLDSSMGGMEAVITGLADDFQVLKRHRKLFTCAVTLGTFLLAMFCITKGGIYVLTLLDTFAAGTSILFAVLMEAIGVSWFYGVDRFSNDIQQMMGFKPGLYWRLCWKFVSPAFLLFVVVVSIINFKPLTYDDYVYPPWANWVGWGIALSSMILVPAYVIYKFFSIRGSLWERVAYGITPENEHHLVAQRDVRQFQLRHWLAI
Kind of experiment: Norepinephrine uptake assay. Particulars: for norepinephrine uptake, % inhibition: 1.0E−05 M. Format: biochemical.

In experiment [5] the target is T2, serotonin transporter (SERT or 5-HT) (Rattus norvegicus, UniProt P31652).
T2 sequence (P31652 whole entry): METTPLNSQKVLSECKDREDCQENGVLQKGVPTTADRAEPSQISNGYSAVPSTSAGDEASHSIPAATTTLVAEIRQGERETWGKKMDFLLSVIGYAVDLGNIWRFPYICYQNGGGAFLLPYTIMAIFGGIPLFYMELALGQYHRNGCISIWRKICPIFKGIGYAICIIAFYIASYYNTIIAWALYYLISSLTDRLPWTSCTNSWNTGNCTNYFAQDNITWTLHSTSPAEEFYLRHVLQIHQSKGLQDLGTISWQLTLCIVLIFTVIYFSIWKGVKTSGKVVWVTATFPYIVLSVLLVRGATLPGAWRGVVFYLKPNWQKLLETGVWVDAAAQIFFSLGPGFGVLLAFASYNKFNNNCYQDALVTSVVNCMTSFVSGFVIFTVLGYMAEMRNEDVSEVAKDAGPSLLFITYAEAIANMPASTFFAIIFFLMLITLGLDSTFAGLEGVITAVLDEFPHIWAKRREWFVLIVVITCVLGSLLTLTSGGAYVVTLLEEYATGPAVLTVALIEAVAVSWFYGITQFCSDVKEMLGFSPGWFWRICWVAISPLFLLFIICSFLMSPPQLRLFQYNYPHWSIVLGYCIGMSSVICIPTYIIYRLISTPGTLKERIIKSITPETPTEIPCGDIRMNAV
The target in experiment [6] is T2, serotonin transporter (SERT or 5-HT). Put plainly: biochemical.
Experiment [7] has as its target T3, PCP (antagonist radioligand) (Rattus norvegicus, UniProt P35439).
T3 construct: PCP; rat cerebral; [^3H]TCP; tissue Eurofins Cerep; host or cells: rat cerebral cortex
Kind of experiment: Binding assay PCP (antagonist radioligand). Particulars: Study 2; Hill coefficient.

For the next experiment, the target named is μ (MOP) (h) (Homo sapiens, UniProt P35372).
Chain of μ (MOP) (h) (P35372 whole entry): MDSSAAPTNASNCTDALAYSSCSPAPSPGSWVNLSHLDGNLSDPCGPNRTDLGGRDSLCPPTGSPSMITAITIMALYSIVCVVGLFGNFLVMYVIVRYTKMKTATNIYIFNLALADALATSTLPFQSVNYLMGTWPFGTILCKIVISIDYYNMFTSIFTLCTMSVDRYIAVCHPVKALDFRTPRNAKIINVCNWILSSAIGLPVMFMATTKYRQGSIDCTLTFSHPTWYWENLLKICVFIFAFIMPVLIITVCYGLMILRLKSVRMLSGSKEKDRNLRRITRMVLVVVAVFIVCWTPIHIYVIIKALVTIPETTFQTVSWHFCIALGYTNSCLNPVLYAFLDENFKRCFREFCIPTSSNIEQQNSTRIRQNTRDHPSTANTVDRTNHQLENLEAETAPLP
The conditions of experiment [8]: mouse hot plate test; cited from earlier work. In general terms: Hot-plate and tail-flick tests time the reaction to a heat stimulus.
Experiment [9] has as its target NMDA (antagonist radioligand). Put plainly: Binding assay NMDA (antagonist radioligand). Particulars: Study 1; reference compound.
[10] abbreviates: 10 mg/kg, single administration 24 hours prior, 60 counts per subject.
[11] abbreviates: Vehicle minus treatment, 10 mg/kg.
The mark [12] stands for this setting: 10 mg/kg, 24 hours prior to testing.
Where [13] appears, read: rat, 24 h after dosing, one-way ANOVA.

As to `CNC1(c2ccccc2Cl)CCCCC1=O` (centres unmarked) [ketamine, reference compound], in experiment [1], the “NSFT: latency to feed in the home cage” value is “neither ketamine or methadone influenced”. Further, the “NSFT: latency to eat in a novel open field” value in [1] (ketamine 10 mg/kg ip, d-methadone 20 mg/kg sc) is on record as “significantly decreases”. Besides, in “Forced swim test” (setting [10]), the “Climbing, Mean frequency” value worked out at 7.600; the “Immobility, Mean frequency” value is reported as 34.100; the “Swimming, Mean frequency” value worked out at 18.300. For the same molecule, in “Forced swim test” (setting [11]), the “Climbing, Mean Diff. (Fisher's PLSD)” value is recorded as −3.822; the “Immobility, Mean Diff. (Fisher's PLSD)” value stood at 14.900; the “Swimming, Mean Diff. (Fisher's PLSD)” value is listed as −11.078. For the same molecule, in “Forced swim test” (rat, 24 h after single dose, d-methadone 10, 20 and 40 mg/kg SC, ketamine 10 mg/kg IP), the “Forced swim test: frequency of immobility vs vehicle” value is “significantly decreased”. Moreover, in “Forced swim test” (rat, d-methadone 10, 20 and 40 mg/kg SC, ketamine 10 mg/kg IP), the “Forced swim test: frequency of swimming vs vehicle” value is on record as “significantly increased”. In experiment [2] (setting [12]), the “Distance traveled min 1-5, Mean” value is reported as 586.333; the “Rearing min 1-5, Mean” value came out at 20.500; the “Total Distance Traveled, Mean” value amounted to 2464.333 cm/60 min. For the same molecule, the “Total Rearing, Mean” value in experiment [2] (10 mg/kg, 24 hours prior to testing, 60 minute test) turned out to be 85.000. Also, in experiment [2] (setting [13]), the “Locomotor activity: total distance traveled (60 min)” value is recorded as “no significant effect” and the “Locomotor activity: total rearing frequency (60 min)” value was “no significant effect”. Moreover, in experiment [3], the “FUST: time sniffing water” value is “no effect” and the “FUST: time spent sniffing female urine vs vehicle” value is reported as “increases”.

As for `CCC(=O)C(c1ccccc1)(c1ccccc1)C(C)CN(C)C` (stereo not drawn) [d-isomethadone], in the experiment on opioid receptors, the “Potency, times less potent than l-isomethadone” value is 50 times.

In the case of `[2H]C([2H])([2H])CC(=O)C(C[C@H](C)N(C([2H])([2H])[2H])C([2H])([2H])[2H])(c1ccccc1)c1ccccc1`, in experiment [4], the half-inhibitory concentration (IC50) turned out to be 7200 nM and the “norepinephrine uptake, % inhibition” value is listed as 61.4%. In addition, in experiment [5], the inhibition amounted to 90.5%. The midpoint of inhibition in experiment [6], the IC50, lay at 1100 nM. Further, the nH in experiment [7] worked out at 0.8.

Regarding `C[C@]12N[C@H](Cc3ccccc31)c1ccccc12` [MK 801], the nH in [7] was 0.9 and 1.1.

Take `C[C@@H](NC(=O)[C@@H](N)Cc1ccc(O)cc1)C(=O)NCC(=O)N(C)[C@@H](Cc1ccccc1)C(=O)NCCO` [DAMGO]: the nH at μ (MOP) (h) is 0.9 and 0.8 and 0.7 and 1.0 and 0.6.

`C[C@H](CN1CCOCC1)C(C(=O)N1CCCC1)(c1ccccc1)c1ccccc1` [d-moramide]: in experiment [8], the “Potency, times more potent than l-moramide” value is on record as 700 times.

As to `O=C(O)[C@@H]1C[C@H](CP(=O)(O)O)CCN1` [CGS 19755], in experiment [9], the half-inhibitory concentration (IC50) is 1300 nM and the Ki was 1100 nM.

As to `CCC(=O)C(CC(C)N(C)C)(c1ccccc1)c1ccccc1` (racemic) [methadone], the “NSFT: latency to feed in the home cage” value in experiment [1] is “neither ketamine or methadone influenced”.

With `CC[C@@H](c1cccc(O)c1)[C@@H](C)CN(C)C` [TapentadolHydrochloride], the inhibition in [5] is 91.1% and 87.2% and 89.1%.

Consider `CC[C@@H](c1cccc(O)c1)[C@@H](C)CN(C)C` [tapentadol hydrochloride, reference compound], for which, in experiment [4], the IC50 was 260 nM and the “norepinephrine uptake, % inhibition” value came out at 94.1%. For the same molecule, the inhibition in [5] is 89.1%. Also, it took 850 nM to reach half-maximal inhibition in experiment [6] (IC50).
